According to PMC3226499, “Environmental Impact on Vascular Development Predicted by High-Throughput Screening” (Environmental Health Perspectives, 2011):
Like-named read-outs stand apart in the source and are kept apart here.

How the values were obtained:
pregnant rabbits = settings: cited from earlier work
[1] = test system: six prioritized vascular targets (VEGFR2, TIE2, CCL2, PAI-1, CXCL10, uPAR); experiment: Vascular bioactivity score (VBS): weighted sum of activity across 23 ToxCast assays; design: species or system human
PI3Ka = PI3Ka (Homo sapiens, UniProt P42336); experiment: PI3Ka biochemical assay
PI3Ka, sequence (P42336 whole entry): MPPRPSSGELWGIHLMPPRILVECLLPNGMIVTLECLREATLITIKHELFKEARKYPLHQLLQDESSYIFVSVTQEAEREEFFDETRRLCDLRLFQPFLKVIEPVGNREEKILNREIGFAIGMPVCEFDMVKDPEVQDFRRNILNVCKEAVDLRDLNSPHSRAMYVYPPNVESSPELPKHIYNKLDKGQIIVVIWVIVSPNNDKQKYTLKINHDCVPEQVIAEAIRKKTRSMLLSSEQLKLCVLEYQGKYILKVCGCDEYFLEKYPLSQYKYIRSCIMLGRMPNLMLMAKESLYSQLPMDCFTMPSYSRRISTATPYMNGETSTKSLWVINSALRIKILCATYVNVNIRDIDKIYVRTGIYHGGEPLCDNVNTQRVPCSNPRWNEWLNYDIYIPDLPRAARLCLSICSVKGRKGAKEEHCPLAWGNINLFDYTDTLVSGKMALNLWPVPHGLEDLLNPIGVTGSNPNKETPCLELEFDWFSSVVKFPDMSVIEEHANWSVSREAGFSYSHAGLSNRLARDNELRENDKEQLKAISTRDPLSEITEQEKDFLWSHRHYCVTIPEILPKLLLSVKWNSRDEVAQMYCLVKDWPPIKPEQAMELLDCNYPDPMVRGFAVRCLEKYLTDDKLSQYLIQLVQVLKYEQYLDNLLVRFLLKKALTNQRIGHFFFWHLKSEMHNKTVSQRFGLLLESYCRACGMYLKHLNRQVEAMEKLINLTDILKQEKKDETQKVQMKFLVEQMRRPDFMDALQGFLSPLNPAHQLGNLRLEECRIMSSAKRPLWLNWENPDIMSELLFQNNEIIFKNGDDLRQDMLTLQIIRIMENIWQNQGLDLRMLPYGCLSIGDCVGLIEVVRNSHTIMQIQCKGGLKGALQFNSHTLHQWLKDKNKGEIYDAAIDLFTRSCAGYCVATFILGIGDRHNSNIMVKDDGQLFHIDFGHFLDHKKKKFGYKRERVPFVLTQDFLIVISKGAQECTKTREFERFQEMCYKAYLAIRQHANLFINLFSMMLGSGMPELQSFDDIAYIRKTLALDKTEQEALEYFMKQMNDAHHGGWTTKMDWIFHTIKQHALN
PI3Ka, sequence (P27986 whole entry partner): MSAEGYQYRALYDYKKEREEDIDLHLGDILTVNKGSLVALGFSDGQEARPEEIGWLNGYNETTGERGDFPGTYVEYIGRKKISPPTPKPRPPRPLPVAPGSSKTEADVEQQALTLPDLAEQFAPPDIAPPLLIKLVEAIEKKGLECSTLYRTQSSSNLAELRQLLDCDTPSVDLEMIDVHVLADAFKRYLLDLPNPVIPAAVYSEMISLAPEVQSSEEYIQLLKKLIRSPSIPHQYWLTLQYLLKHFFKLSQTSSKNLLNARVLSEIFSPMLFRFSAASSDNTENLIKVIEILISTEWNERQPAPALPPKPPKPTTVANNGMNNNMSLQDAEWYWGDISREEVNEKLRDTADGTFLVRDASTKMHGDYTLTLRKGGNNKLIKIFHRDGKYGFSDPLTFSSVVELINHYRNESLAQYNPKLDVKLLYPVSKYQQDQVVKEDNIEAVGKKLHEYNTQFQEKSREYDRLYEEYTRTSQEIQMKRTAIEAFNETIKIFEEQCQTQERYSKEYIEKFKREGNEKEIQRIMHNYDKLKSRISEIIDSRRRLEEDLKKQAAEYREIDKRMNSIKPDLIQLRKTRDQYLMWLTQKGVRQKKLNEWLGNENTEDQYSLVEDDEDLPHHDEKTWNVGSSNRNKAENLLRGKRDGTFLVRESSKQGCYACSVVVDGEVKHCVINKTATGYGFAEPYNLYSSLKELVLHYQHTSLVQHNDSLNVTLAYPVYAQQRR

pregnant rats = settings: cited from earlier work
PTEN = PTEN (Homo sapiens, UniProt P60484); experiment: PTEN biochemical assay
PTEN, sequence (P60484 whole entry, species assumed): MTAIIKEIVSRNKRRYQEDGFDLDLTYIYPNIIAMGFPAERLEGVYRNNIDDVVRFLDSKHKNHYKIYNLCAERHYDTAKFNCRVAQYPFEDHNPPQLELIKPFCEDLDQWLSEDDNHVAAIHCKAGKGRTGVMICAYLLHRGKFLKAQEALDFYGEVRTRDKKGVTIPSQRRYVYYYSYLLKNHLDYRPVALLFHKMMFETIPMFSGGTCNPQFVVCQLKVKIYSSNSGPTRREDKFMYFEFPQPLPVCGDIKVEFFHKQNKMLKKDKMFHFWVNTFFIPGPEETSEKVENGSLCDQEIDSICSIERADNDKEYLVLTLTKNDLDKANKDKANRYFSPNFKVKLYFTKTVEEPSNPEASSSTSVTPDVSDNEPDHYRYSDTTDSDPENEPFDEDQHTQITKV

mouse = settings: ToxRefDB end points; ref U.S. EPA 2010b; cited from earlier work
EphB2 = molecular target: T1, EphB2 (Homo sapiens, UniProt P29323); experiment: EphB2 biochemical assay; settings: read-out: EphB2 AC50
T1 sequence (P29323 569-986 isoform P29323-2 limits assumed): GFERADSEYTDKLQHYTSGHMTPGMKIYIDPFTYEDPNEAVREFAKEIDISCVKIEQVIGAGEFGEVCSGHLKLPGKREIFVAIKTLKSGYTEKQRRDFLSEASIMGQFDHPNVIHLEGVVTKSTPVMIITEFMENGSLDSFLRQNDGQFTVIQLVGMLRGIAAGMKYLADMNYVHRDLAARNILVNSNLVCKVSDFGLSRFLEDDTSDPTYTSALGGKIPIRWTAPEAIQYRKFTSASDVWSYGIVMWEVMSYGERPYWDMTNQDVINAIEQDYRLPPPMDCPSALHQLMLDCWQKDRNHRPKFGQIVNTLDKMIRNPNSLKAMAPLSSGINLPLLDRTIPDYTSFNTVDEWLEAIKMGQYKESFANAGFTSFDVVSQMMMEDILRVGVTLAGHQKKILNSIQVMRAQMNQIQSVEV

VEGFR3 = VEGFR3 (Homo sapiens, UniProt P35916); experiment: VEGFR3 biochemical assay
TIE2 = TIE2 (Homo sapiens, UniProt Q02763); experiment: TIE2 cell-free biochemical assay
TIE2, sequence (Q02763 23-1124, species assumed): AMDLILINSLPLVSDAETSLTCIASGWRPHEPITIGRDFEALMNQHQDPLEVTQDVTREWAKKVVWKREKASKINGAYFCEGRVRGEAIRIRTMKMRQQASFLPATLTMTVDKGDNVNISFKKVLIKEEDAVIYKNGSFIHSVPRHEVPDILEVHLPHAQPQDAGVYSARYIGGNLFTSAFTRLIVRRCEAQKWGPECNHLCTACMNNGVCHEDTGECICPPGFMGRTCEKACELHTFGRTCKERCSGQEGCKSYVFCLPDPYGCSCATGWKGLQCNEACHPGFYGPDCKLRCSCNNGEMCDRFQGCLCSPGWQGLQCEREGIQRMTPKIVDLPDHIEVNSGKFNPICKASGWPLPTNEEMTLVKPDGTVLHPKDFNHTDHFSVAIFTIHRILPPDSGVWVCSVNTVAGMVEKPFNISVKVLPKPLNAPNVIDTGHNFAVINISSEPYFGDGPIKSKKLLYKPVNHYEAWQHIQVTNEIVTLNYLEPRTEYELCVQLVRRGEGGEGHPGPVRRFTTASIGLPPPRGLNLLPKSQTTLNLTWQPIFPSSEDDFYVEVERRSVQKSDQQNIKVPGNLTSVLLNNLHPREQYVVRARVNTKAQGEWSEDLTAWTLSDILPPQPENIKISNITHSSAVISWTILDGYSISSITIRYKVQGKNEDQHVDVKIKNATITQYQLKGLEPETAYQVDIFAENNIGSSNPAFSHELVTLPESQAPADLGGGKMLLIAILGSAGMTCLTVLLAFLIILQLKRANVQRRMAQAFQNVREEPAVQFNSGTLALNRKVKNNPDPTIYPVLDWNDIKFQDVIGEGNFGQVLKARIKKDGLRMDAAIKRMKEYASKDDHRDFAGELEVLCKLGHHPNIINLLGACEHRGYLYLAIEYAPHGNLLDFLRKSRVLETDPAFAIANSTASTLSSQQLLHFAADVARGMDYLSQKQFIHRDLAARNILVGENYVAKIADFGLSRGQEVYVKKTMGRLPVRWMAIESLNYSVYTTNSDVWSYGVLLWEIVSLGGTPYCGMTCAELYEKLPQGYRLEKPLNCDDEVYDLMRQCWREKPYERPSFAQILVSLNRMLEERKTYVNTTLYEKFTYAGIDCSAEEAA
Excerpt: Assays measured direct interactions between chemicals and molecular targets (receptors, enzymes), as well as downstream effects on reporter gene activity or cellular consequences. […] The perturbation scores are a method of aggregating assays into groups and providing a higher-level view of chemical activity across important signaling pathways.
The chemical library was run against these assays, as was a repeat of the TIE2 assay from the original data series (Table 2).

VEGFR2 = VEGFR2 (Homo sapiens, UniProt P35968); experiment: VEGFR2 biochemical assay
VEGFR2, sequence (P35968 20-1356, species assumed): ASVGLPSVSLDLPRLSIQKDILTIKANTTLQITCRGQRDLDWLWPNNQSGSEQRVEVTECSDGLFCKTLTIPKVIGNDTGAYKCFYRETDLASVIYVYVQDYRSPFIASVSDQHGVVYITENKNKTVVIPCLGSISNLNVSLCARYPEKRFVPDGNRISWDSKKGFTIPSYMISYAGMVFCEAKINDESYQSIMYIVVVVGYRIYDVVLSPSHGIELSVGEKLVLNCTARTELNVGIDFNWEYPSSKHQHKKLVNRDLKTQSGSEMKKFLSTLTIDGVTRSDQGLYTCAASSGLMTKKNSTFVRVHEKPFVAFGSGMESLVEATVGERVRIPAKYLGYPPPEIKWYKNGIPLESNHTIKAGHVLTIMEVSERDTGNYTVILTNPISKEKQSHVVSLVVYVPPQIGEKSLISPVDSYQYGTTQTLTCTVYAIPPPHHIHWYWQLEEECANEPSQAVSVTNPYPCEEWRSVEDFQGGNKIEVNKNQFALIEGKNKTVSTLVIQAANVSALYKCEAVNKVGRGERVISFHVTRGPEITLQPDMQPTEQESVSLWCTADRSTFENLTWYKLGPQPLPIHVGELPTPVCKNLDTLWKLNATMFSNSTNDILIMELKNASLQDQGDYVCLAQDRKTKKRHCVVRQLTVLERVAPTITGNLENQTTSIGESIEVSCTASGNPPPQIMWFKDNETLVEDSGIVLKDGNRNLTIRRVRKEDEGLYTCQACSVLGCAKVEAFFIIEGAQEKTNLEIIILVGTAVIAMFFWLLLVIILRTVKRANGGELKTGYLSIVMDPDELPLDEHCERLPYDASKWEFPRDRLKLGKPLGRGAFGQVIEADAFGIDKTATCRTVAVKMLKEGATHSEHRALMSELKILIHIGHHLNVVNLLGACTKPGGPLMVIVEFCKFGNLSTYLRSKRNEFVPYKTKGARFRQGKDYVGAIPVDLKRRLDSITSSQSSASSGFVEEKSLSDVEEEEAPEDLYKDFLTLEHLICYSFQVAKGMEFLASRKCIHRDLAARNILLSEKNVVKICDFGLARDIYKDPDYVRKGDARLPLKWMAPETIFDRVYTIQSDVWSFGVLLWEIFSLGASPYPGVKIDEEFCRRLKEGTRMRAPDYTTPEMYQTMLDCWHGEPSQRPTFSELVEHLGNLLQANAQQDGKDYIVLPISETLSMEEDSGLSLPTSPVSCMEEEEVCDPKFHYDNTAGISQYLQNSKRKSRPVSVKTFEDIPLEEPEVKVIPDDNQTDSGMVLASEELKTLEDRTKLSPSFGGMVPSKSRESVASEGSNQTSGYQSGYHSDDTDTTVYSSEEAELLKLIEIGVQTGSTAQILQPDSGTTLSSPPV

[2] = rabbit-specific effects in ToxRefDB prenatal studies, ref U.S. EPA 2010b
[3] = pVDCs with rabbit-specific effects
[4] = rat-specific effects in ToxRefDB prenatal studies, ref U.S. EPA 2010b
[5] = pVDCs with rat-specific effects
[6] = ranking of 309 phase I chemicals, mean cutoff for pVDC

Molecule	VBS [1, 3]	Developmental phenotype (pregnant rats; [4])	VBS [1, 5]	further results
C[C@@]1(c2ccc(Oc3ccccc3)cc2)OC(=O)N(Nc2ccccc2)C1=O (racemic) [Famoxadone]	1.82			Developmental phenotype (pregnant rabbits; [2]): Embryo fetal loss; maternal pregnancy loss
Oc1ccc(C(c2ccc(O)cc2)C(Cl)(Cl)Cl)cc1 [2,2-bis-(p-Hydroxyphenyl)-1,1,1-trichloroethane]				AC50 (PI3Ka): 28 µM; VBS ([1]; ToxCast chemicals of Table 2): 2.28
Cc1nn(C)c(Oc2ccccc2)c1/C=N/OCc1ccc(C(=O)OC(C)(C)C)cc1 [(Z,E)-Fenpyroximate]		Skeletal: axial	3.88	
CCOCN(C(=O)CCl)c1c(C)cccc1CC [Acetochlor]			2.16	
CCc1cccc(CC)c1N(COC)C(=O)CCl [Alachlor]		Fetal weight reduction; embryo fetal loss	2.97	
COP(=O)(OC)SCn1c(=O)oc2cc(Cl)cnc21 [Azamethiphos]	3.10			Developmental phenotype (pregnant rabbits; [2]): Maternal pregnancy loss
CCCCOCN(C(=O)CCl)c1c(CC)cccc1CC [Butachlor]	1.99			
C=CCOC(=O)C(C)(C)OC(=O)c1cc(-n2c(=O)cc(C(F)(F)F)n(C)c2=O)ccc1Cl [Butafenacil]	2.94			Developmental phenotype (pregnant rabbits; [2]): Embryo fetal loss
O=C1C2CC=CCC2C(=O)N1SC(Cl)(Cl)Cl (stereo not shown) [Captan]				AC50 (PTEN): 35 µM; VBS ([1]; ToxCast chemicals of Table 2): 1.14
CC1=C(C(=O)Nc2ccccc2)SCCO1 [Carboxin]	1.56			Developmental phenotype (pregnant rabbits; [2]): Maternal pregnancy loss
N#Cc1c(Cl)c(Cl)c(Cl)c(C#N)c1Cl [Chlorothalonil]		Embryo fetal loss; maternal pregnancy loss	3.28	
CCOP(=S)(OCC)Oc1ccc2c(C)c(Cl)c(=O)oc2c1 [Coumaphos]				MOUSE Chronic (mouse): No effe ct re corded
Cc1ccc(-c2c(Cl)nc(C#N)n2S(=O)(=O)N(C)C)cc1 [Cyazofamid]		Skeletal: axial	3.34	
O=C(O)C1(C(=O)Nc2ccc(Cl)cc2Cl)CC1 [Cyclanilide]				AC50 (PTEN; read-out: PTEN AC50): 3.9 µM; AC50 (EphB2): 50 µM; VBS ([1]; ToxCast chemicals of Table 2): 0.21
CN1CSC(=S)N(C)C1 [Dazomet]	2.61			
COP(=O)(OC)OC=C(Cl)Cl [Dichlorvos]	2.34			Developmental phenotype (pregnant rabbits; rabbit, in vivo): Maternal pregnancy loss
CCOc1nc(F)cc2nc(S(=O)(=O)Nc3c(Cl)cccc3Cl)nn12 [Diclosulam]	2.09			AC50 (PTEN; read-out: PTEN AC50): 50 µM; Developmental phenotype (pregnant rabbits; [2]): Maternal pregnancy loss; VBS ([1]; ToxCast chemicals of Table 2): 2.09
OC(c1ccc(Cl)cc1)(c1ccc(Cl)cc1)C(Cl)(Cl)Cl [Dicofol]	1.92			Developmental phenotype (pregnant rabbits; [2]): Maternal pregnancy loss
COP(=O)(OC)O/C(C)=C/C(=O)N(C)C [Dicrotophos]	1.59			
CCOc1cc(C(C)(C)C)ccc1C1COC(c2c(F)cccc2F)=N1 (stereo not shown) [Etoxazole]	3.66			Developmental phenotype (pregnant rabbits; [2]): Skeletal: axial
CCOC(=O)NCCOc1ccc(Oc2ccccc2)cc1 [Fenoxycarb]	3.60			Developmental phenotype (pregnant rabbits; [2]): Skeletal: axial
CC1(C)C(C(=O)OC(C#N)c2cccc(Oc3ccccc3)c2)C1(C)C (stereo not shown) [Fenpropathrin]			2.18	Developmental phenotype (pregnant rats; rat, in vivo): Maternal pregnancy loss
N#Cc1c[nH]cc1-c1cccc2c1OC(F)(F)O2 [Fludioxonil]		Urogenital: renal, ureteric	1.82	Developmental phenotype (pregnant rats; rat-specific effects in ToxRefDB prenatal studies, ref U.S. EPA 2010b, listed as fludioxonil): urogenital end points
CCOC(=O)COc1cc(-n2ncc(C(F)(F)F)c(C)c2=O)c(F)cc1Cl [Flufenpyr-ethyl]	1.73			Developmental phenotype (pregnant rabbits; [2]): Maternal pregnancy loss
CCCCCOC(=O)COc1cc(N2C(=O)C3=C(CCCC3)C2=O)c(F)cc1Cl [Flumiclorac-pentyl]	2.11			Developmental phenotype (pregnant rabbits; [2]): Maternal pregnancy loss
CO/N=C(/C1=NOCCO1)c1ccccc1Oc1ncnc(Oc2ccccc2Cl)c1F [Fluoxastrobin]		Skeletal: appendicular	2.79	

Molecule	VBS [1, 3]	Developmental phenotype (pregnant rats; [4])	VBS [1, 5]	further results
C[C@@H]1[C@@H](c2ccc(Cl)cc2)SC(=O)N1C(=O)NC1CCCCC1 [Hexythiazox]		Skeletal: appendicular	2.78	
CCOC(=O)C(C)OC(=O)c1cc(Oc2ccc(C(F)(F)F)cc2Cl)ccc1[N+](=O)[O-] (stereo not shown) [Lactofen]		Fetal weight reduction; maternal pregnancy loss; skeletal: appendicular; skeletal: axial	3.18	
N#CSCSC#N [Methylene bis(thiocyanate)]	6.55			Developmental phenotype (pregnant rabbits; [2]): Maternal pregnancy loss
CCc1cccc(C)c1N(C(=O)CCl)C(C)COC (stereo not shown) [Metolachlor]		Fetal weight reduction; embryo fetal loss; maternal pregnancy loss	1.57	
COP(=O)(OC)OC(Br)C(Cl)(Cl)Br (stereo not shown) [Naled]		Embryo fetal loss; trunk: body wall	4.22	
CCOc1cc(Oc2ccc(C(F)(F)F)cc2Cl)ccc1[N+](=O)[O-] [Oxyfluorfen]	1.82			Developmental phenotype (pregnant rabbits; [2]): Embryo fetal loss; maternal pregnancy loss
CN(C)[C@@H]1C(O)=C(C(N)=O)C(=O)[C@@]2(O)C(O)=C3C(=O)c4c(O)cccc4[C@@](C)(O)[C@H]3[C@H](O)[C@@H]12 [Oxytetracycline dihydrate, reference compound]				AC50 (VEGFR3): 6.5 µM; AC50 (PTEN): 1.6 µM; AC50 (TIE2): 15 µM; AC50 (VEGFR2): 19 µM; AC50 (PI3Ka): 6.2 µM; VBS ([1]; ToxCast chemicals of Table 2): 3.85
C#CCC1=C(C)C(OC(=O)C2C(C=C(C)C)C2(C)C)CC1=O (stereo not shown) [Prallethrin]		Maternal pregnancy loss	2.11	
CCCN(CCC)c1c([N+](=O)[O-])cc(C(F)(F)F)c(N)c1[N+](=O)[O-] [Prodiamine]		Neurosensory: eye	2.19	
CCCSP(=O)(OCC)Oc1ccc(Br)cc1Cl (stereo not shown) [Profenofos]		Maternal pregnancy loss	1.71	
C#CCOS(=O)OC1CCCCC1Oc1ccc(C(C)(C)C)cc1 (stereo not shown) [Propargite]	3.79			Developmental phenotype (pregnant rabbits; [2]): Skeletal: axial
CCNP(=S)(OC)O/C(C)=C/C(=O)OC(C)C (stereo not shown) [Propetamphos]	2.08			Developmental phenotype (pregnant rabbits; [2]): Embryo fetal loss
Fc1ccc(Oc2ccnc3cc(Cl)cc(Cl)c23)cc1 [Quinoxyfen]	3.02			Developmental phenotype (pregnant rabbits; rabbit, in vivo): Maternal pregnancy loss
CCS(=O)(=O)c1cccnc1S(=O)(=O)NC(=O)Nc1nc(OC)cc(OC)n1 [Rimsulfuron]	2.52			Developmental phenotype (pregnant rabbits; rabbit, in vivo): Embryo fetal loss; maternal pregnancy loss
CCC/C(=N\OCC)C1=C(O)CC(CC(C)SCC)CC1=O (stereo not shown) [Sethoxydim]				AC50 (PTEN): 22 µM; VBS ([1]; ToxCast chemicals of Table 2): 0.00
CCC(C)(C)C(=O)OC1=C(c2ccc(Cl)cc2Cl)C(=O)OC12CCCCC2 [Spirodiclofen]		Urogenital: renal	3.15	Developmental phenotype (pregnant rats; rat-specific effects in ToxRefDB prenatal studies, ref U.S. EPA 2010b, listed as spirodiclofen): urogenital end points
FC(F)C(F)(F)OCC(Cn1cncn1)c1ccc(Cl)cc1Cl (stereo not shown) [Tetraconazole]		General fetal pathology; skeletal: axial; urogenital: renal, ureteric	2.23	Developmental phenotype (pregnant rats; rat, in vivo): urogenital end points
COC(=O)c1c(C(F)F)nc(C(F)(F)F)c(C2=NCCS2)c1CC(C)C [Thiazopyr]			2.00	
CS/C(C)=N\OC(=O)N(C)SN(C)C(=O)O/N=C(\C)SC [Thiodicarb]		Fetal weight reduction, general fetal pathology; embryo fetal loss; maternal pregnancy loss; skeletal: axial	2.97	
CON=C(C(=O)OC)c1ccccc1CON=C(C)c1cccc(C(F)(F)F)c1 [Trifloxystrobin]	4.26			Developmental phenotype (pregnant rabbits; [2]): Skeletal: axial
CC1(C)C(C=C(Cl)Cl)C1C(=O)OC(C#N)c1ccc(F)c(Oc2ccccc2)c1 (stereo not shown) [cyfluthrin]				VBS [1, 6]: 1.48
CC(C)(C)c1ccc(CSc2cnn(C(C)(C)C)c(=O)c2Cl)cc1 [pyridaben]				VBS [1, 6]: 6.9
Abamectin				AC50 (TIE2; read-out: TIE2 AC50, repeat of the TIE2 assay from the original data series): 38.8 µM; AC50 (EphB2): 17 µM; PI3Ka AC50 (PI3Ka): 6.4 µM; VBS ([1]; ToxCast chemicals of Table 2): 5.19
Diniconazole			4.57	
Emamectin benzoate		Fetal weight reduction; skeletal: appendicular, axial, cranial	2.91	AC50 (PTEN; read-out: PTEN AC50): 2.1 µM; AC50 (EphB2): 21 µM; PI3Ka AC50 (PI3Ka): 7.9 µM; VBS ([1]; ToxCast chemicals of Table 2): 2.91
